Test results reported in patent publication EP0801066A1, “Heterocyclic substituted benzothiophenes and pharmaceutical compositions” (ELI LILLY AND COMPANY, priority 1996, dated 1997).
Marks after values point to notes of the source that are not given here.

Key:
ovariectomized rats [1] = assay: Uterine weight in ovariectomized rat post-menopausal model, 4-day oral dosing; type: in vivo, Sprague Dawley rats; conditions: for Increase in Uterine Weight (%): daily for 4 days, versus ovariectomized controls
Method: In the examples illustrating the methods, a post-menopausal model was used in which effects of different treatments upon circulating lipids were determined.
(§1) Seventy-five day old female Sprague Dawley rats (weight range of 200 to 225g) are obtained from Charles River Laboratories (Portage, MI). The animals are either bilaterally ovariectomized (OVX) or exposed to a Sham surgical procedure at Charles River Laboratories, and then shipped after one week. Upon arrival, they are housed in metal hanging cages in groups of 3 or 4 per cage and have ad libitum access to food (calcium content approximately 0.5%) and water for one week. Room temperature is maintained at 22.2° ± 1.7° C with a minimum relative humidity of 40%. The photoperiod in the room is 12 hours light and 12 hours dark.
(§2) Dosing Regimen Tissue Collection. After a one week acclimation period (therefore, two weeks post-OVX) daily dosing with test compound is initiated. 17α-ethynyl estradiol or the test compound is given orally, unless otherwise stated, as a suspension in 1% carboxymethylcellulose or dissolved in 20% cyclodextrin. Animals were dosed daily for 4 days. Following the dosing regimen, animals are weighed and anesthetized with a ketamine: Xylazine (2:1, V:V) mixture and a blood sample is collected by cardiac puncture. The animals are then sacrificed by asphyxiation with CO2, the uterus is removed through a midline incision, and a wet uterine weight is determined.

Serum cholesterol = Serum cholesterol analysis in ovariectomized rats (hyperlipidemia); type: in vivo, Sprague Dawley rats; conditions: oral; for Decrease in Cholesterol (%): daily for 4 days, serum cholesterol versus ovariectomized controls
Text: as §1, §2
Cholesterol Analysis. Blood samples are allowed to clot at room temperature for 2 hours, and serum is obtained following centrifugation for 10 minutes at 3000 rpm. Serum cholesterol is determined using a Boehringer Mannheim Diagnostics high performance cholesterol assay. Briefly the cholesterol is oxidized to cholest-4-en-3-one and hydrogen peroxide. The hydrogen peroxide is then reacted with phenol and 4-aminophenazone in the presence of peroxidase to produce a p-quinone imine dye, which is read spectrophotemetrically at 500 nm. Cholesterol concentration is then calculated against a standard curve. The entire assay is automated using a Biomek Automated Workstation.

ovariectomized rats [2] = assay: Osteoporosis Test Procedure: femur density in ovariectomized rats, 35-day dosing; type: in vivo, Sprague Dawley rats; conditions: oral, in 20% hydroxypropyl β-cyclodextrin, daily for 35 days
Text: Seventy-five day old female Sprague Dawley rats (weight range of 200 to 225g) are obtained from Charles River Laboratories (Portage, MI). The animals are either bilaterally ovariectomized (OVX) or exposed to a Sham surgical procedure at Charles River Laboratories, and then shipped after one week. Upon arrival, they are housed in metal hanging cages in groups of 3 or 4 per cage and have ad libitum access to food (calcium content approximately 0.5%) and water for one week. Room temperature is maintained at 22.2° ± 1.7° C with a minimum relative humidity of 40%. The photoperiod in the room is 12 hours light and 12 hours dark. Following the General Preparation Procedure, infra, the rats are treated daily for 35 days (6 rats per treatment group) and sacrificed by carbon dioxide asphyxiation on the 36th day. The 35 day time period is sufficient to allow maximal reduction in bone density, measured as described herein. At the time of sacrifice, the uteri are removed, dissected free of extraneous tissue, and the fluid contents are expelled before determination of wet weight in order to confirm estrogen deficiency associated with complete ovariectomy. […] The right femurs are excised and digitilized x-rays generated and analyzed by an image analysis program (NIH image) at the distal metaphysis. The proximal aspect of the tibiae from these animals are also scanned by quantitative computed tomography. […]

[3] = system: Uterine Eosinophil Peroxidase (EPO); assay: Uterine Eosinophil Peroxidase (EPO) Assay in ovariectomized rats; type: in vivo, Sprague Dawley rats; conditions: for Serum Eosinophil (Vmax): oral, daily for 4 days, eosinophil peroxidase Vmax
Text: as §1, §2
Uterine Eosinophil Peroxidase (EPO) Assay. Uteri are kept at 4° C until time of enzymatic analysis. The uteri are then homogenized in 50 volumes of 50 mM Tris buffer (pH - 8.0) containing 0.005% Triton X-100. Upon addition of 0.01% hydrogen peroxide and 10 mM O-phenylenediamine (final concentrations) in Tris buffer, increase in absorbance is monitored for one minute at 450 nm. The presence of eosonophils in the uterus is an indication of estrogenic activity of a compound. The maximal velocity of a 15 second interval is determined over the initial, linear portion of the reaction curve.

[4] = system: MCF-7 breast adenocarcinoma cells; assay: MCF-7 Proliferation Assay (tritiated thymidine incorporation); type: cell-based; conditions: Homo sapiens, MCF7; 48 hours with drug, 4 hours tritiated thymidine pulse; read-out: IC50, inhibition of the growth of MCF-7 cells
Method: MCF-7 breast adenocarcinoma cells (ATCC HTB 22) are maintained in MEM (minimal essential medium, phenol red-free, Sigma, St. Louis, MO) supplemented with 10% fetal bovine serum (FBS) (V/V), L-glutamine (2 mM), sodium pyruvate (1 mM), HEPES {(N-[2-hydroxyethyl]piperazine-N'-[2-ethanesulfonic acid]10 mM}, non-essential amino acids and bovine insulin (1 ug/mL) (maintenance medium). Ten days prior to assay, MCF-7 cells are switched to maintenance medium supplemented with 10% dextran coated charcoal stripped fetal bovine serum (DCC-FBS) assay medium) in place of 10% FBS to deplete internal stores of steroids. MCF-7 cells are removed from maintenance flasks using cell dissociation medium (Ca^++/Mg^++ free HBSS (phenol red-free) supplemented with 10 mM HEPES and 2 mM EDTA). Cells are washed twice with assay medium and adjusted to 80,000 cells/mL. Approximately 100 µL (8,000 cells) are added to flat-bottom microculture wells (Costar 3596) and incubated at 37° C in a 5% CO2 humidified incubator for 48 hours to allow for cell adherence and equilibration after transfer. Serial dilutions of drugs or DMSO as a diluent control are prepared in assay medium and 50 µL transferred to triplicate microcultures followed by 50 µL assay medium for a final volume of 200 µL. […] Samples are counted by liquid scintillation using a Wallac BetaPlace β counter. […]

[5] = ovariectomized rats, EE2 at 0.1 mg/kg/day

Row | Increase in Uterine Weight (%) (ovariectomized rats [1]; dose 0.1 mg/kg) | Serum Eosinophil (Vmax) ([3]; dose 0.1 mg/kg) | Increase in Uterine Weight (%) (ovariectomized rats [1]; dose 1.0 mg/kg) | Increase in Uterine Weight (%) (ovariectomized rats [1]; dose 10.0 mg/kg) | IC50 [4] | Serum Eosinophil (Vmax) ([3]; dose 1.0 mg/kg) | Serum Eosinophil (Vmax) ([3]; dose 10.0 mg/kg) | SMILES | uterine weight compared to the ovariectomized animals (in words) (ovariectomized rats [1]; [5]) | Decrease in Cholesterol (%) (Serum cholesterol; dose 0.1 mg/kg) | serum cholesterol compared to the ovariectomized animals (in words) (Serum cholesterol; [5]) | bone loss / reduction in femur density after ovariectomy (in words) (ovariectomized rats [2]) | eosinophil infiltration into the uterus (in words) ([3]; stromal layer of ovariectomized rat uteri) | Decrease in Cholesterol (%) (Serum cholesterol; dose 1.0 mg/kg) | Decrease in Cholesterol (%) (Serum cholesterol; dose 10.0 mg/kg)
1 | 182.1* % | 211.1* | – | – | – | – | – | C#C[C@]1(O)CC[C@H]2[C@@H]3CCc4cc(O)ccc4[C@H]3CC[C@@]21C [EE2, 17-a-ethynyl estradiol, reference compound] | substantially greater than the uterine weight of the ovariectomized animals | 87.4* % | caused a decrease in serum cholesterol | prevented this loss | substantial and expected increase in eosinophil infiltration | – | –
2 | 80.3* % | 48.0* | 91.4* % | 80.8* % | 0.01 µM | 70.5* | 55.8* | O=C(c1ccc(OCCN2CCCCC2)nc1)c1c(-c2ccc(O)cc2)sc2cc(O)ccc12 [Prep. 1, [2-(4-Hydroxyphenyl)-6-hydroxybenzo[b]thien-3-yl][2-[2-(1-piperidinyl)ethoxy]pyridin-5-yl]methanone] | – | 57.1* % | – | – | – | 66.1* % | 61.7* %
